Some test systems named below: SN12C; HCT-15; IGROV-1; SK-OV-3; HT-29; 786-0; SNB-78; LOX IMVI; UACC-257; A498; A549; HOP-92; K562; DMS-273; SF-295; OVCAR-8; NCI-H460.
Common to all, as to test: NCI-60 cell line screen, 48 h

We go through twelve compounds from ChEMBL document CHEMBL1201862, “PubChem BioAssay data set” (2004).

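96-well plates; 48 h exposure; 5 concentrations. Endpoints by linear interpolation between flanking doses. Not reached: highest tested concentration assigned. Here, GI50 denotes the concentration required for 50% inhibition of growth.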 The source made the active and inactive calls. Cut-off read from the data, not from the text of the source: active = GI50 up to about 1.1 µM and inactive = higher. Some results are limits rather than exact numbers.

Turning to `COc1ccc2ccccc2c1C1OC(=O)c2ccccc21` (stereo unspecified), the GI50 in the assay on SN12C is > 100 µM (inactive); in the assay on HCT-15, > 100 µM; in the assay with IGROV-1 it was > 100 µM (inactive); in the assay on SK-OV-3 it was > 100 µM (inactive); with HT-29 it was > 100 µM (inactive); with 786-0, > 100 µM (inactive). The GI50 in the assay with SNB-78 was > 100 µM (inactive); in the assay on LOX IMVI, > 100 µM (inactive); with UACC-257, 91 µM (inactive); in the assay with A498 it was > 100 µM (inactive); with A549, 96.2 µM (inactive); with HOP-92, > 100 µM (inactive). For the same compound, the GI50 was 33 µM (inactive) in the assay with K562, 86.9 µM (inactive) in the assay on DMS-273, 56.2 µM (inactive) in the assay on SF-295 and > 100 µM (inactive) with OVCAR-8.

Take `O=S(=O)(Sc1ccc(Cl)cc1)c1ccc(Cl)cc1`: the GI50 with SN12C was 12.4 µM (inactive); with HCT-15 it was 17.7 µM; in the assay on IGROV-1 it was 16.8 µM (inactive); in the assay with SK-OV-3 it was 44.7 µM (inactive); with HT-29, 18.2 µM (inactive); in the assay on 786-0 it was 16 µM (inactive). Further, the GI50 in the assay on SNB-78 was 24.2 µM (inactive); in the assay with LOX IMVI, 11.6 µM (inactive); in the assay on NCI-H460 it was 17.1 µM (inactive); with UACC-257, 16.6 µM (inactive); in the assay on A498 it was 15.9 µM (inactive); in the assay on A549 it was 12.2 µM (inactive). The GI50 with HOP-92 was 20.1 µM (inactive); in the assay with K562 it was 19.9 µM (inactive); with DMS-273 it was 15.4 µM (inactive); with SF-295 it was 12.2 µM (inactive); with OVCAR-8, 16.1 µM (inactive).

Regarding `BrC1=CC=C2NCCCCCC/N=C3\C=CC(Br)=CC=C3NCCCCCC/N=C\2C=C1`, the GI50 with SN12C is > 25.5 µM (inactive); in the assay with HCT-15 it was > 25.5 µM; in the assay with IGROV-1, > 25.5 µM (inactive); with SK-OV-3 it was > 25.5 µM (inactive); with HT-29, > 25.5 µM (inactive); in the assay with 786-0 it was > 25.5 µM (inactive). The GI50 in the assay on SNB-78, in the assay on LOX IMVI, with NCI-H460, in the assay on UACC-257, in the assay on A498 and in the assay with A549 was > 25.5 µM (inactive) each time. In addition, the GI50 in the assay on HOP-92, with K562, with DMS-273, in the assay on SF-295 and in the assay with OVCAR-8 was > 25.5 µM (inactive) throughout.

`Cc1c(NC(=S)NC(=O)c2ccc([N+](=O)[O-])cc2)c(=O)n(-c2ccccc2)n1C`: the GI50 with SN12C was > 100 µM (inactive); with HCT-15 it was > 100 µM; with IGROV-1, > 100 µM (inactive); in the assay with SK-OV-3, > 100 µM (inactive); in the assay on HT-29, > 100 µM (inactive); with 786-0, > 100 µM (inactive). The GI50 in the assay with SNB-78, in the assay on LOX IMVI, with NCI-H460, in the assay with UACC-257, in the assay with A498 and in the assay on A549 was > 100 µM (inactive) in each case. The GI50 with HOP-92, in the assay with K562, in the assay with DMS-273, with SF-295 and in the assay on OVCAR-8 was > 100 µM (inactive) each time.

For the compound `C[C@]12CCC(=O)C=C1CC[C@@H]1C2CC[C@]2(C)c3nn(-c4ccccc4)nc3CC12` (stereo partly specified), the GI50 in the assay on SN12C was > 100 µM (inactive); in the assay with HCT-15 it was > 100 µM; with IGROV-1, > 100 µM (inactive); in the assay with SK-OV-3 it was > 100 µM (inactive); in the assay with HT-29, > 100 µM (inactive); in the assay with 786-0, > 100 µM (inactive). The GI50 in the assay with SNB-78, in the assay on LOX IMVI, in the assay on NCI-H460, with UACC-257, in the assay on A498 and in the assay with A549 was > 100 µM (inactive) throughout. The GI50 with HOP-92, with K562, in the assay on DMS-273, in the assay with SF-295 and with OVCAR-8 was > 100 µM (inactive) in each case.

Regarding `CCOc1ccc(/N=C/c2ccc3ccccc3n2)cc1`, the GI50 with SN12C is > 100 µM (inactive); with HCT-15, > 100 µM; in the assay on IGROV-1 it was > 100 µM (inactive); in the assay with SK-OV-3 it was > 100 µM (inactive); with HT-29, > 100 µM (inactive); with 786-0, > 100 µM (inactive). Also, the GI50 in the assay on SNB-78 was > 100 µM (inactive); with LOX IMVI, > 73.5 µM (inactive); in the assay on NCI-H460, > 100 µM (inactive); in the assay on UACC-257 it was > 100 µM (inactive); in the assay on A498 it was > 100 µM (inactive); in the assay with A549, > 100 µM (inactive). The GI50 in the assay with HOP-92 is > 75.3 µM (inactive); with K562, 49.8 µM (inactive); in the assay with DMS-273 it was > 100 µM (inactive); in the assay on SF-295, > 100 µM (inactive); in the assay with OVCAR-8, > 100 µM (inactive).

For `Nc1nc2c(-c3ccc([N+](=O)[O-])cc3)nnn2c2ccccc12`, the GI50 in the assay on SN12C was > 100 µM (inactive); with HCT-15, > 100 µM; with IGROV-1, > 100 µM (inactive); in the assay with SK-OV-3, 51.4 µM (inactive); with HT-29, > 100 µM (inactive); with 786-0 it was 84.5 µM (inactive). Further, the GI50 was 81.1 µM (inactive) in the assay on SNB-78; > 100 µM (inactive) in the assay with LOX IMVI; > 100 µM (inactive) in the assay with NCI-H460; > 100 µM (inactive) in the assay on A498; > 100 µM (inactive) in the assay on A549; > 100 µM (inactive) with HOP-92. Further, the GI50 in the assay with K562 was > 100 µM (inactive); with DMS-273 it was > 100 µM (inactive); with SF-295, 62.1 µM (inactive); in the assay on OVCAR-8, 75.9 µM (inactive).

As for `C=C(/C=C/C=C(\CO)CCC=C(C)C)[C@H]1CCC2([C@H](CCCO)/C(=C(/C)C=O)CC[C@]2(C)O)[C@H]1O` (stereo partly specified), the GI50 is > 100 µM in the assay with HCT-15; > 100 µM (inactive) with IGROV-1; > 100 µM (inactive) in the assay with SK-OV-3; > 100 µM (inactive) with HT-29; > 100 µM (inactive) in the assay with 786-0; > 100 µM (inactive) with SNB-78. For the same compound, the GI50 in the assay on LOX IMVI was 54.2 µM (inactive); in the assay with NCI-H460 it was 56.8 µM (inactive); in the assay on UACC-257, > 100 µM (inactive); with A498, > 100 µM (inactive); in the assay on A549, 59 µM (inactive); in the assay on HOP-92, 3.56 µM (inactive). Moreover, the GI50 in the assay on K562 was 51.4 µM (inactive); with DMS-273, > 100 µM (inactive); in the assay on SF-295, 21.2 µM (inactive); in the assay with OVCAR-8, > 100 µM (inactive).

As to `N#CC1=C(Cl)NC(Cl)=C(C#N)C1c1c(Cl)cccc1Cl`, the GI50 is 24.7 µM (inactive) with SN12C; 16.2 µM in the assay on HCT-15; 37.9 µM (inactive) with IGROV-1; 29.7 µM (inactive) with SK-OV-3; 31.4 µM (inactive) in the assay on HT-29; 25.1 µM (inactive) with 786-0. The GI50 in the assay with SNB-78 was 92.7 µM (inactive); in the assay with LOX IMVI, 17.3 µM (inactive); with NCI-H460, 18.4 µM (inactive); with UACC-257, 22.1 µM (inactive); in the assay with A498, 94.6 µM (inactive); in the assay on A549 it was 29.1 µM (inactive). For the same compound, the GI50 in the assay on HOP-92 was 21.4 µM (inactive); in the assay with K562, 19 µM (inactive); in the assay with DMS-273, 19.6 µM (inactive); in the assay with SF-295 it was 41.7 µM (inactive); with OVCAR-8, 26.1 µM (inactive).

For `CC1=C(O)C(=O)C2C(=O)C1C(C)C2c1ccccc1` (stereo unspecified), the GI50 in the assay with HCT-15 is > 100 µM; in the assay with IGROV-1, > 100 µM (inactive); in the assay with SK-OV-3, > 100 µM (inactive); in the assay on HT-29 it was > 100 µM (inactive); in the assay with 786-0, > 100 µM (inactive); in the assay on SNB-78, > 100 µM (inactive). For the same compound, the GI50 in the assay with LOX IMVI, with UACC-257, in the assay with A498, in the assay on A549, with HOP-92 and with K562 was > 100 µM (inactive) in each case. Also, the GI50 in the assay on DMS-273, in the assay on SF-295 and in the assay on OVCAR-8 was > 100 µM (inactive) in each case.

Consider `O=C1c2ccccc2C(=O)N1CCN(CCN1C(=O)c2ccccc2C1=O)Cc1ccccc1`, for which the GI50 in the assay on SN12C was > 100 µM (inactive); in the assay with HCT-15 it was > 100 µM; in the assay with SK-OV-3, > 100 µM (inactive); with 786-0, > 100 µM (inactive); with SNB-78, > 100 µM (inactive); in the assay on LOX IMVI it was > 100 µM (inactive). The GI50 with NCI-H460 was > 100 µM (inactive); in the assay on UACC-257 it was > 100 µM (inactive); in the assay on A498 it was > 100 µM (inactive); with A549, > 100 µM (inactive); in the assay with HOP-92, 68.2 µM (inactive); with K562 it was > 100 µM (inactive). In addition, the GI50 in the assay with DMS-273, with SF-295 and with OVCAR-8 was > 100 µM (inactive) throughout.

For `CC(=O)Nc1ccc(/C=N\N2C(=O)c3ccccc3C2=O)cc1`, the GI50 in the assay with SN12C is > 100 µM (inactive); in the assay on HCT-15, > 100 µM; in the assay on IGROV-1 it was > 100 µM (inactive); with HT-29 it was > 100 µM (inactive); in the assay on 786-0, > 100 µM (inactive); with SNB-78, > 100 µM (inactive). In addition, the GI50 in the assay on LOX IMVI, with NCI-H460, in the assay with UACC-257, with A498, in the assay on A549 and in the assay with HOP-92 was > 100 µM (inactive) throughout. In addition, the GI50 in the assay on K562, in the assay with DMS-273, in the assay on SF-295 and in the assay on OVCAR-8 was > 100 µM (inactive) each time.
